Patent US6346278B1, “Lipid extract having anti-inflammatory activity” (Pharmalink International Limited, priority 1995, dated 2002)

How the values were obtained:
[1] = test system: collagen (II)-induced auto-allergic arthritis; assay: Collagen (II)-induced auto-allergic arthritis; details: for Rear paw inflammation Day 2 / Rear paw inflammation Day 4: paw inflamed by collagen (II) injection; for Percent Inhibitions Front paw inflam. / Percent Inhibitions Left rear paw / Percent Inhibitions Right rear paw: day 14
Description: Collagen (Type II) induced polyarthritis was induced in female Wistar rats by injection of collagen (II) with a non-arthritogenic adjuvant to sensitise the test animals.
PCO was given orally after dilution into olive oil (8 mg/ml) and administered at 2.5 ml/kg/day to give 20 mg/kg.
Prophylactic treatment was from day 1 to day 13 (i.e. total […]) orally (p.o.). […] PCO was diluted into olive oil (6 mg/ml) for p.o. dosing at 2.5 ml/kg/day to give 15 mg/kg, and diluted into olive oil-cineole (17.3 v/v) (10 mg/ml) for t.d. administration at 2 ml/kg/day to give 20 mg/kg.
Seatone™ was administered p.o. at 300 mg/kg; Nurofen™ was administered p.o. at 50 mg/kg; Na Aurothiomalate (ATM) was administered in 8 doses at 6.3 mg/kg subcutaneously (s.c.).

[2] = test system: Kaolin-induced paw oedema; assay: Kaolin-induced paw oedema; type: in vivo, rat; details: 150 mg/kg p.o., without synergist
Description: Kaolin-induced paw oedema was investigated as a possible assay for PCO since this inflammation is slower developing than that induced with carrageenin (which recedes after three hours). The protocol involves injecting 5 mg kaolin, suspended in water (not saline, in which it aggregates), into each rear paw 40 minutes after dosing the rats with PCO given both p.o. or i.p. as dispersions prepared with 0.02% Tween in either water (p.o.) or saline (i.p.). The paw swelling was then read two hours and five hours after the kaolin injection.

[3] = test system: arthritic rats; assay: Anti-arthritic assay: adjuvant-induced polyarthritis, treatment days 10-13; type: in vivo; details: for % Reduction in Inflammation: rear paw thickness day 14 vs control
From the text: Though more time consuming, this assay is of more value than the acute assay (described above) as it detects not only (i) those anti-inflammatory drugs acting in the acute assay (but often at lower ED50 values) but also (ii) other agents e.g. clobuzarit (CIoZic^R) or lobenzarit (CCA), which obviously have unique arthritis-suppressant properties but are not anti-oedemic/antipyretic or otherwise detectable in acute assays.
The protocol used is to pre-establish disease by injecting the arthritigen on Day 0, look for first signs of paw inflammation (usually manifest on Days 10-12) and then dose the animals with test materials for four days. Over this period, the paw inflammation in the untreated control animals “blooms” rapidly to reach a near maximum on Day 14. Drugs acting over this time-frame to hold down the paw swelling are certainly anti-symptomatic but rarely disease-ablating. On ceasing treatment, there is usually a recrudescence in symptoms. This however is a positive feature of this assay as it clearly indicates a) the drug has a finite action but gives some idea of its duration of efficacy by the rapidity (or otherwise) of the rebound; and b) the animals with minimal signs of disease on Day 14 reflected a positive drug effect rather than failure to respond to the original arthritigen (i.e. false negatives). An accurate description of this assay is “late prophylaxis”. Obviously by delaying treatment until after Day 14, one can look for “therapeutic activity”, but since changes may be slow or negligible within four days (even with some powerful NSAIDs), collection of adequate data is difficult.
Details of the protocol used are: inject the arthritigen into the tailbase of female Wistar rats (160-200 gm)=800 mcg heat-killed Mycobact tuberculosis suspended in 0.1 ml squalane in such a fashion as to avoid any blood vessels and to promote optimal drainage into the lymphatics. Ten days later, the animals were weighed, the thickness of the rear paws and tail was measured and signs of inflammation in the forepaws scored on a scale of 0 to 4 +. After dosing with test compounds once daily for four days (i.e. on Days 10 through 13 post-arthritigen), these measurements were repeated on Days 14 and 18 (i.e. after completion of treatment and again after four days rebound) to monitor the arthritis development. […]
Rats with the first signs of arthritis 10 days after inoculating with mycobacterial arthritogen were then treated orally with the test materials for 4 days only. Effectiveness of the test materials was measured as […] rear paw thickness on day 14 when compared to the control group H.

[4] = test system: Carrageenin paw oedema; assay: Acute carrageenin paw oedema assay; type: in vivo, rat; details: for % Inhibition Oedema 1 hr / % Inhibition Oedema 2 hr: 30 mg/kg
Description: Female Wistar rats (180-220 gm) were pre-dosed p.o. or i.p. with test formulations. 40 minutes later they were injected in each rear paw with 0.1 ml saline containing 0.6 mg Na carrageenin. The subsequent paw oedema was quantified by measuring the increase in paw thickness after one and two hours with a screw gauge micrometer. […] [The oedema recedes after three hours with this dose of carrageenin.]

[5] = test system: stomach; assay: Gastro-toxicity assay; type: in vivo, rat
Description: Gastro toxicity studies were carried out on female Wistar rats with established arthritis initiated with collagen (type II), not on drug therapy. Aspirin and PCO were suspended with 0.04% Tween-20 for oral dosing, after fasting animals overnight. […]

[6] = 6.3 mg/kg s.c. in saline x8, every second day
[7] = 6.3 mg/kg s.c. x8, every second day
[8] = with MPL (Misoprostal 0.5 mg/kg p.o.)
[9] = 50 mg/kg p.o. x15, prophylactic
[10] = 50 mg/kg p.o. x15, prophylactic day 1 to day 13

O=C([O-])CC([S-])C(=O)[O-].[Au+].[Na+].[Na+] (stereo not shown) [ATM, sodium aurothiomalate]
Rear paw inflammation Day 2 [1, 6]: 1.00 mm
Rear paw inflammation Day 4 [1, 6]: 0.68 mm
Day 14: Signs arthritis Front paw inflam. [1, 7]: 1.3+
Day 14: Signs arthritis Left rear paw [1, 7]: 0.47 mm
Day 14: Signs arthritis Right rear paw [1, 7]: 0.70 mm
Percent Inhibitions rear paw inflammation Day 2 [1, 7]: 29%
Percent Inhibitions rear paw inflammation Day 4 [1, 7]: 46%
Percent Inhibitions Front paw inflam. [1, 7]: 41%
Percent Inhibitions Left rear paw [1, 7]: 76%
Percent Inhibitions Right rear paw [1, 7]: 60%
ΔWt(0-14) ([1]; 6.3 mg/kg s.c. x8, weight gain may be misleading (possible incipient kidney damage)): (+24) gm
toxic dose ([1]; s.c. in saline every second day, higher doses were toxic): > 6.3 mg/kg

CC(=O)Oc1ccccc1C(=O)O [Aspirin]
% Inhibition Oedema 2 HR ([2]; 2 HR): 55%
% Inhibition Oedema 5 HR ([2]; 5 HR): 51%
effective dose in the standard anti-arthritic assay ([3]; adjuvant-induced rat polyarthritis): 300 mg/kg
ED50 ([4]; Rattus norvegicus, acute carrageenin assay): ~150 mg/kg
effect on the stomach (in words) ([5]; 300 mg/kg (20 times an effective dose of PCO)): considerable gastric damage
Gastric lesion index ([5]; High arthritis with 0.15 N HCl co-administered orally, oral in 0.04% Tween-20): >112
Gastric lesion index ([5]; High arthritis, Day 15, oral in 0.04% Tween-20, fasted overnight): 82
Gastric lesion index ([5]; Low arthritis, Day 32, oral in 0.04% Tween-20, fasted overnight): 41

COc1ccc2c(c1)c(CC(=O)O)c(C)n2C(=O)c1ccc(Cl)cc1 [Indomethacin, indomethacin]
% Reduction in Inflammation ([3]; 1 mg/kg orally for 4 days): 26%
% Reduction in Inflammation ([3]; 3 mg/kg orally for 4 days): 68%
% Reduction in Inflammation ([3]; 5 mg/kg orally for 4 days): 83%

CC(C)Cc1ccc(C(C)C(=O)O)cc1 (stereo not shown) [Nurofen, ibuprofen]
% Inhibition Oedema 1 hr [4, 8]: 56%
% Inhibition Oedema 2 hr [4, 8]: 58%
% Inhibition Oedema 1 hr ([4]; without MPL): 37%
% Inhibition Oedema 2 hr ([4]; without MPL): 42%
% Inhibition Front paw ([1]; 40 mg/kg, days 8-14): 72%
% Inhibition Rear L. paw ([1]; 40 mg/kg, days 8-14): 54%
% Inhibition Rear R. paw ([1]; 40 mg/kg, days 8-14): 07%
Mean Differences Days 8-15 Ft. Paw Inflam. ([1]; 40 mg/kg, days 8-14): 0.7 +
Mean Differences Days 8-15 Rear R. Paw ([1]; 40 mg/kg, days 8-14): 1.48 mm
Mean Differences Days 8-15 ΔWt ([1]; 40 mg/kg, days 8-14): +15 gm
Mean Differences Days 8-15 Rear L. Paw ([1]; 40 mg/kg, days 8-14 (7 daily doses), therapeutic): 0.82 mm
Day 14: Signs arthritis Front paw inflam. [1, 9]: 2.5+
Day 14: Signs arthritis Left rear paw [1, 9]: 1.35 mm
Day 14: Signs arthritis Right rear paw [1, 9]: 1.72 mm
Percent Inhibitions rear paw inflammation Day 2 [1, 9]: (−05) %
Percent Inhibitions rear paw inflammation Day 4 [1, 9]: (−20) %
ΔWt(0-14) [1, 9]: +12 gm
Rear paw inflammation Day 2 [1, 10]: 1.48 mm
Rear paw inflammation Day 4 [1, 10]: 1.52 mm
Percent Inhibitions Front paw inflam. [1, 9]: (−14) %
Percent Inhibitions Left rear paw [1, 9]: 32%
Percent Inhibitions Right rear paw [1, 9]: 02%
Differences Days 15-18 (Rebound) Front paw ([1]; after 40 mg/kg, days 8-14): 1.1+
Differences Days 15-18 (Rebound) Rear L. paw ([1]; after 40 mg/kg, days 8-14): 0.38
Differences Days 15-18 (Rebound) Rear R. paw ([1]; after 40 mg/kg, days 8-14): 0.38
Differences Days 15-18 (Rebound) ΔWt. ([1]; after 40 mg/kg, days 8-14): +05
